Tests used:
[1] = tested on: subcutaneous pancreatic tumors; assay: Tumor size in mice bearing subcutaneous pancreatic tumors, RF + Gemcitabine; format: in vivo, mouse; conditions: Gemcitabine 70 mg/Kg intravenously once per week; higher power RF system (0-1200 W); n=5
Method: (13A) Mice bearing subcutaneous pancreatic tumors were exposed to either RF, Gemcitabine, or RF+Gemcitabine once per week until the control group tumor size became a burden (n=5 in each group). The RF system used can be seen in (13B) and is a higher power version (0-1200 W) of the portable RF system. RF conditions were similar to that shown in (13B). Gemcitabine was given intravenously at a dosage of 70 mg/Kg. […] (13A) Mice bearing subcutaneous pancreatic tumors were exposed to non-invasive RF, Gemcitabine, or non-invasive RF+Gemcitabine once per week until the control group tumor size became a burden (n=5 in each group). The non-invasive RF system used can be seen in (13B) and is a higher power version (0-1200 W) of the portable RF system. non-invasive RF conditions were similar to that shown in FIG. 13B. Gemcitabine was given intravenously at a dosage of 70 mg/Kg.

Hep3B cells [2] = assay: Clonogenic assay, Hep3B cells; format: cell-based, human
Method: Clonogenic assay estimates single-cell reproductive viability by measuring the ability of a single cell to form a colony of 50 cells or more. Clonogenic assay in this study was performed as described previously (Franken et al., 2006). Briefly, cancer cells from an exponentially growing, sub-confluent culture were trypsinized and harvested. Approximately 200 cells were counted and plated in each well of a 6-well plate. Approximately 12 hours later, the cells were adherent and treatment conditions were introduced as described herein. After varying treatments, media was replaced and cells were allowed 14 days to form colonies. Subsequently, the media was aspirated and cells were washed with PBS once. Colonies were then fixed with glutaraldehyde (6.0% v/v) and stained with crystal violet (0.5% w/v) for 30 minutes on a leveled shaker at 50 RPM. The fixation and staining solution was then aspirated and the 6-well plates were air-dried after gentle rinsing with tap water. The number of colonies in each well was counted using a colony counting grid. […]
Clonogenic assays were performed on Hep3B cells and SNU449 cells after one of two combinations of hyperthermia and gemcitabine compared with hyperthermia or gemcitabine alone. […] Next, clonogenic viability was evaluated at a gemcitabine concentration of 5 ng/ml and varied the duration of hyperthermia (30 minutes to 4 hours). […]

Hep3B cells [3] = assay: Cell cycle analysis (BrdU flow cytometry) in Hep3B cells; format: cell-based, human
Method: For cell cycle analysis a BrdU-labeling protocol from BrdU Flow Kit (BD Pharmingen, San Diego, Calif.) was used according to the supplied instructions. Data was analyzed using FlowJo 7.63 (Tree Star, Inc., Ashland, Oreg.). For cell cycle analysis, a BrdU-labeling protocol was used to identify cells in S-phase of the cell cycle accurately. Cells were harvested from an exponentially growing culture as described for other experiments and seeded in 6-well plates, approximately 150,000 cells per well. After 24-hours adherent sub-confluent monolayers were noted and cells were exposed to various experimental conditions. At the end of the treatments, cells were washed and sampled at various time points to study the progression of the cell cycle in time. One hour before each time point, cells were pulsed with BrdU (10 μM) for 1 hour. BrdU gets incorporated in the DNA of cells in S-phase along with other nucleotides and can be detected using a mouse FITC conjugated anti-BrdU antibody. A BrdU Flow Kit (BD Pharmingen, San Diego, Calif.) was used according to the supplied instructions without modifications. For counterstaining of DNA content, cells were incubated with 7-amino-actinomycin D (7-AAD) supplied with the kit, on ice for 20 minutes before analysis on a BD LSR II flowcytometer (BD biosciences San Jose, Calif.). Single cell populations were identified using forward and side-scatter profiles. A total of 10,000 events were recorded from a gated single cell population. For 7-AAD fluorescence measurements, a SORP YG laser (561 nm) was used to excite the cells and emission was recorded through a 630LP filter followed by a 660/20 filter. For FITC fluorescence measurements, a SORP blue laser (488 nm) was used to excite the cells and emission was recorded through 505LP filter followed by a 525/50 filter. There was no spectral over-lap between the two emission spectra and compensation was not required. Data was analyzed using FlowJo 7.63 (Tree Star, Inc., Ashland, Oreg.). […] Cell cycle progression was analyzed over time (FIGS. 16 and 17). […]

`Nc1ccn([C@@H]2O[C@H](CO)[C@@H](O)C2(F)F)c(=O)n1` [gemcitabine, 2′,2′-difluoro 2′-deoxycytidine] was tested, and the “tumor size, Gemcitabine+RF group compared to other groups” value [1] was “clear reduction in tumor size”, the “clonogenic survival, gemcitabine combined with hyperthermia” value (Hep3B cells [2]; Hep3B, irrespective of dose schedule) was “dose-dependent enhancement of gemcitabine toxicity” and the “clonogenic viability, varied duration of hyperthermia” value (Hep3B cells [2]; gemcitabine 5 ng/ml, hyperthermia 30 minutes to 4 hours, cell line not named in the sentence (Hep3B and SNU449 in FIG. 17)) was “thermal dose-dependent enhancement in toxicity”. The “cell cycle progression, gemcitabine followed by hyperthermia compared with gemcitabine alone” value (Hep3B cells [3]; 1 μM 24 hours, last two hours at 42.5° C.) was “much slower progression through late-S and G2/M phases”, the cell cycle progression (Hep3B cells [3]; 1 μM gemcitabine, 24-hour incubation) was “completely halts cell cycle progression” and the “cell cycle recovery once gemcitabine is removed” value (Hep3B cells [3]; after 24 hours 1 μM gemcitabine) was “cells resume synchronized DNA synthesis in 24 hours”.

Source: patent US20170209579A1, “NON-INVASIVE RADIOFREQUENCY FIELD TREATMENT FOR CANCER THERAPY” (Baylor College of Medicine, priority 2014, published 2017)
